# Patent US8697641B2, “4-amino-4-oxobutanoyl peptide cyclic analogues, inhibitors of viral replication” (Achillion Pharmaceuticals, Inc., priority 2008, dated 2014)
# pEC50: −log10 of the molar value.
# System: Hepatitis C replicon
# Assay: HCV replicon assay (NPT ELISA readout) in Huh-7 replicon-containing cells
# Assay type: cell-based, Hepatitis C virus
# Conditions: Hepatitis C virus, 72 h; HCV replicon in Huh-7 cells, three days incubation
# Procedure: Compounds claimed herein are tested for the ability to inhibit viral replication of the Hepatitis C replicon in cultured cells in which the HCV replicon construct has been incorporated. The HCV replicon system was described by Bartenschlager, et. al (Science, 285, pp. 110-113 (1999)). The replicon system is predictive of in vivo anti-HCV activity; compounds that are active in humans uniformly evidence activity in the replicon assay.
# In this assay HCV replicon containing cells are treated with different concentrations of the test compound to ascertain the ability of the test compound to suppress replication of the HCV replicon. As a positive control, HCV replicon-containing cells are treated with different concentrations of interferon alpha, a known inhibitor of HCV replication. The replicon assay system includes Neomycin Phosphotransferase (NPT) as a component of the replicon itself in order to detect the transcription of replicon gene products in the host cell. Cells in which the HCV replicon is actively replicating have high levels of NPT; the level of NPT is proportional to HCV replication. […] The NPT level of each sample is measured using a captured ELISA.
# A protocol for testing compounds for the ability to inhibit viral replication of the Hepatitis C replicon cultured cells in which the replicon construct has been incorporated, follows.
# The HCV replicon contains, 5′-3′, the HCV-IRES, the neomycin phosphotransferase (neo) gene, the IRES of encephalomyocarditis virus, which directs translation of HCV sequences NS3 to NS5B, and the 3′-NTR. The sequence of the HCV replicon has been deposited in GenBank (Accession no. AJ242652).
# The replicon is transfected into Huh-7 cells using standard methods such as electroporation.
# The equipment and materials include, but are not limited to, Huh-7 HCV replicon-containing cells, maintenance media (DMEM (Dulbecco's modified Eagle media) supplemented with 10% FBS, L-glutamine, non-essential amino acids, penicillin (100 units/ml), streptomycin (100 micrograms/ml), and 500 micrograms/ml of Geneticin (G418), screening media (DMEM supplemented with 10% FBS, L-glutamine, non-essential amino acids, penicillin (100 units/ml) and streptomycin (100 micrograms/ml)), 96 well tissue culture plates (flat bottom), 96 well plates (U bottom for drug dilution), Interferon alpha for positive control, fixation reagent (such as methanol:acetone), primary antibody (rabbit anti-NPTII), secondary antibody: Eu-N1 l, and enhancement solution.
# The cells are then seeded onto 96-well plates at a density of 6000-7500 cells/100 microliters/well (6-7.5×10^5 cells/10 ml/plate). The plates are then incubated at 37° C. in a 5% CO2 incubator.
# HCV replicon-containing cells are rinsed with once PBS once; 2 mls of trypsin are then added. Cells are incubated at 37° C. in a 5% CO2 incubator for 3-5 minutes. 10 mls of complete medium is added to stop the reaction. Cells are blown gently, put into a 15 ml tube, and spun at 1200 rpm for four minutes. The trypsin/medium solution is removed and 5 mls of medium (500 ml DMEM (high glucose)) from BRL catalog #12430-054; 50 mls 10% FBS, 5% Geneticin G418 (50 mg/ml, BRL catalog #10131-035), 5 ml MEM non-essential amino acids (100×BRL #11140-050) and 5 ml pen-strep (BRL #15140-148) is added. The cells and media are mixed carefully
# Cells are plated with screening medium (500 ml DMEM (BRL #21063-029), 50 ml FBS (BRL #10082-147) and 5 ml MEM non-essential amino acid (BRL #11140-050) at 6000-7500 fcells/100 μl/well of 96 well plate (6-7.5×10^5 cells/10 ml/plate). Plates are placed into 37° C. 5% CO2 incubator overnight.
# The following morning, drugs (test compounds or interferon alpha) are diluted in 96 well U bottom plates with media or DMSO/media, depending on the final concentration chosen for screening. Generally for 6 concentrations of each test compounds ranging from 10 micromolar to 0.03 micromolar are applied. […]
row,SMILES,pEC50
1,"COc1ccc2c(O[C@@H]3C[C@H]4C(=O)N[C@]5(C(=O)NS(=O)(=O)C6CC6)C[C@H]5/C=C\CCCCC[C@H](CC(=O)N5CC(C)CC(C)C5)C(=O)N4C3)cc(-c3ccccc3)nc2c1 (stereo partly drawn) [Compound 68, (2R,6R,13aS, 14aR,16aS,Z)-N-(cyclopropylsulfonyl)-6-(2-(3,5-dimethylpiperidin-1-yl)-2-oxoethyl)-2-(7-methoxy-2-phenylquinolin-4-yloxy)-5,16-dioxo-1,2,3,5,6,7,8,9,10,11, 13a,14,14a,15,16,16a-hexadecahydrocyclopropa [e]pyrrolo[1,2-a][1,4] diazacyclopentadecine-14a-carboxamide]",> 6.00
2,"COc1ccc2c(O[C@@H]3C[C@H]4C(=O)N[C@]5(C(=O)NS(=O)(=O)C6CC6)C[C@H]5/C=C\CCCCC[C@H](CC(=O)N5C(C)CCCC5C)C(=O)N4C3)cc(-c3ccccc3)nc2c1 (stereo partly drawn) [Compound 69, (2R,6R,13aS, 14aR,16aS,Z)-N-(cyclopropylsulfonyl)-6-(2-(2,6-dimethylpiperidin-1-yl)-2-oxoethyl)-2-(7-methoxy-2-phenylquinolin-4-yloxy)-5,16-dioxo-1,2,3,5,6,7,8,9,10,11, 13a,14,14a,15,16,16a-hexadecahydrocyclopropa [e]pyrrolo[1,2-a][1,4] diazacyclopentadecine-14a-carboxamide]",> 6.00
3,"COc1ccc2c(O[C@@H]3C[C@H]4C(=O)N[C@]5(C(=O)NS(=O)(=O)C6CC6)C[C@H]5/C=C\CCCCC[C@H](CC(=O)N5CCC(F)CC5)C(=O)N4C3)cc(-c3ccccc3)nc2c1 [Compound 70, (2R,6R,13aS, 14aR,16aS,Z)-N-(cyclopropylsulfonyl)-6-(2-(4-fluoropiperidin-1-yl)-2-oxoethyl)-2-(7-methoxy-2-phenylquinolin-4-yloxy)-5,16-dioxo-1,2,3,5,6,7,8,9,10,11, 13a,14,14a,15,16,16a-hexadecahydrocyclopropa [e]pyrrolo[1,2-a][1,4] diazacyclopentadecine-14a-carboxamide]",> 6.00
4,"COc1ccc2c(O[C@@H]3C[C@H]4C(=O)N[C@]5(C(=O)NS(=O)(=O)C6CC6)C[C@H]5/C=C\CCCCC[C@H](CC(=O)N5CCCC(C(F)(F)F)C5)C(=O)N4C3)cc(-c3ccccc3)nc2c1 (stereo partly drawn) [Compound 71, (2R,6R,13aS, 14aR,16aS,Z)-N-(cyclopropylsulfonyl)-2-(7-methoxy-2-phenylquinolin-4-yloxy)-5,16-dioxo-6-(2-oxo-2-(3-(trifluoromethyl)piperidin-1-yl)ethyl)-1,2,3,5,6,7,8,9,10,11, 13a,14,14a,15,16,16a-hexadecahydrocyclopropa [e]pyrrolo[1,2-a][1,4] diazacyclopentadecine-14a-carboxamide]",> 6.00
5,"COc1ccc2c(O[C@@H]3C[C@H]4C(=O)N[C@]5(C(=O)NS(=O)(=O)C6CC6)C[C@H]5/C=C\CCCCC[C@H](CC(=O)NC(C)(C)C)C(=O)N4C3)cc(-c3ccccc3)nc2c1 [Compound 72, (2R,6R,13aS,14aR, 16aS,Z)-6-(2-(tert-butylamino)-2-oxoethyl)-N-(cyclopropylsulfonyl)-2-(7-methoxy-2-phenylquinolin-4-yloxy)-5,16-dioxo-1,2,3,5,6,7,8,9,10,11, 13a,14,14a,15,16,16a-hexadecahydrocyclopropa [e]pyrrolo[1,2-a][1,4] diazacyclopentadecine-14a-carboxamide]",> 6.00
6,"COc1ccc2c(O[C@@H]3C[C@H]4C(=O)N[C@]5(C(=O)NS(=O)(=O)C6CC6)C[C@H]5/C=C\CCCCC[C@H](CC(=O)NC5CCCC5)C(=O)N4C3)cc(-c3ccccc3)nc2c1 [Compound 73, (2R,6R,13aS,14aR, 16aS,Z)-6-(2-(cyclopentylamino)-2-oxoethyl)-N-(cyclopropylsulfonyl)-2-(7-methoxy-2-phenylquinolin-4-yloxy)-5,16-dioxo-1,2,3,5,6,7,8,9,10,11, 13a,14,14a,15,16,16a-hexadecahydrocyclopropa [e]pyrrolo[1,2-a][1,4] diazacyclopentadecine-14a-carboxamide]",> 6.00
7,"COc1ccc2c(O[C@@H]3C[C@H]4C(=O)N[C@]5(C(=O)NS(=O)(=O)C6CC6)C[C@H]5/C=C\CCCCC[C@H](CC(=O)N5CCCCC5)C(=O)N4C3)cc(-c3ccccn3)nc2c1 [Compound 74, (2R,6R,13aS, 14aR,16aS,Z)-N-(cyclopropylsulfonyl)-2-(7-methoxy-2-(pyridin-2-yl)quinolin-4-yloxy)-5,16-dioxo-6-(2-oxo-2-(piperidin-1-yl)ethyl)-1,2,3,5,6,7,8,9,10,11, 13a,14,14a,15,16,16a-hexadecahydrocyclopropa [e]pyrrolo[1,2-a][1,4] diazacyclopentadecine-14a-carboxamide]",> 6.00
8,"COc1ccc2c(O[C@@H]3C[C@H]4C(=O)N[C@]5(C(=O)NS(=O)(=O)C6CC6)C[C@H]5/C=C\CCCCC[C@H](CC(=O)N5CCOC(C)C5)C(=O)N4C3)cc(-c3ccccc3)nc2c1 (stereo partly drawn) [Compound 75, (2R,6R,13aS, 14aR,16aS,Z)-N-(cyclopropylsulfonyl)-2-(7-methoxy-2-phenylquinolin-4-yloxy)-6-(2-(2-methylmorpholino)-2-oxoethyl)-5,16-dioxo-1,2,3,5,6,7,8,9,10,11, 13a,14,14a,15,16,16a-hexadecahydrocyclopropa [e]pyrrolo[1,2-a][1,4] diazacyclopentadecine-14a-carboxamide]",> 6.00
9,"COc1ccc2c(O[C@@H]3C[C@H]4C(=O)N[C@]5(C(=O)NS(=O)(=O)C6CC6)C[C@H]5/C=C\CCCCC[C@H](CC(=O)N5CC(C)OC(C)C5)C(=O)N4C3)cc(-c3ccccc3)nc2c1 (stereo partly drawn) [Compound 76, (2R,6R,13aS, 14aR,16aS,Z)-N-(cyclopropylsulfonyl)-6-(2-(2,6-dimethylmorpholino)-2-oxoethyl)-2-(7-methoxy-2-phenylquinolin-4-yloxy)-5,16-dioxo-1,2,3,5,6,7,8,9,10,11, 13a,14,14a,15,16,16a-hexadecahydrocyclopropa [e]pyrrolo[1,2-a][1,4] diazacyclopentadecine-14a-carboxamide]",> 6.00
10,"COc1ccc2c(O[C@@H]3C[C@H]4C(=O)N[C@]5(C(=O)NS(=O)(=O)C6CC6)C[C@H]5/C=C\CCCCC[C@H](CC(=O)N5CC6CC5CO6)C(=O)N4C3)cc(-c3ccccc3)nc2c1 (stereo partly drawn) [Compound 77, (2R,6R,13aS,14aR, 16aS,Z)-6-(2-(2-oxa-5-azabicyclo[2.2.1]heptan-5-yl)-2-oxoethyl)-N-(cyclopropylsulfonyl)-2-(7-methoxy-2-phenylquinolin-4-yloxy)-5,16-dioxo-1,2,3,5,6,7,8,9,10,11, 13a,14,14a,15,16,16a-hexadecahydrocyclopropa [e]pyrrolo[1,2-a][1,4] diazacyclopentadecine-14a-carboxamide]",> 6.00
11,"COc1ccc2c(O[C@@H]3C[C@H]4C(=O)N[C@]5(C(=O)NS(=O)(=O)C6CC6)C[C@H]5/C=C\CCCCC[C@H](CC(=O)N5CCCC(C)C5)C(=O)N4C3)cc(-c3ccccc3)nc2c1 (stereo partly drawn) [Compound 78, (2R,6R,13aS, 14aR,16aS,Z)-N-(cyclopropylsulfonyl)-2-(7-methoxy-2-phenylquinolin-4-yloxy)-6-(2-(3-methylpiperidin-1-yl)-2-oxoethyl)-5,16-dioxo-1,2,3,5,6,7,8,9,10,11, 13a,14,14a,15,16,16a-hexadecahydrocyclopropa [e]pyrrolo[1,2-a][1,4] diazacyclopentadecine-14a-carboxamide]",> 6.00
